Test results published in patent US20230226136A1, “A SYNERGISTIC FORMULATION FOR MANAGEMENT OF RESPIRATORY PATHOGENS INCLUDING CORONAVIRUSES” (priority 2020, published 2023).

Tests used:
[1] = Effective concentrations of components of the formulation (tested in 200 uL of the formulation); settings: for Actual concentrations that were effective in 200 uL, 1:20 dilution: concentration of the component within the formulation at 1:20 dilution
Experimental: Table 1 depicts the concentration of the biological, non-toxic peptide molecules included in the formulation of the present invention. The synergistic formulation of the present invention is prepared in various combinations of the constituents including protease inhibitor, 9 Arg, ion chelator, FDHIVY, Poly-Lys (L8), Anti-HAT, and vitamin B12. Each combination may include some of the above mentioned constituents depending on the use of the formulation. These concentrations of the components of the synergistic formulations of the present invention have been tested to be effective in 200 μL of the formulation.

SARS-CoV-2 = assay: IC-50 plaque assay against SARS-CoV-2; assay type: cell-based; settings: highest concentration tested 25 μM, FIG. 3
Experimental: The IC-50 value of Remdesivir was calculated by considering the top and baseline value 100 and 0 respectively.
The IC-50 of the test material was calculated by considering the top and baseline value 100 and 0 respectively.

Compound | Actual concentrations that were effective in 200 uL, 1:20 dilution [1] | Actual concentrations that were effective in 200 uL, 1:30 dilution ([1]; concentration of the component within the formulation at 1:30 dilution) [mM] | reduction in viral load (SARS-CoV-2)
9-L-Arginine-peptide [9 Arg] | 2 mM | 1.3 | –
CCC(CC)COC(=O)[C@H](C)N[P@](=O)(OC[C@H]1O[C@@](C#N)(c2ccc3c(N)ncnn23)[C@H](O)[C@@H]1O)Oc1ccccc1 [Remdesivir] | – | – | up to 86.84%
Phenylalanine-Aspartic acid-Histidine-Isoleucine-Valine-Tyrosine [FDHIVY] | 0.25 µg/mL | – | –
